This is an account of results in patent publication US5075287A, “Muramyl peptide derivatives and immunoregulating compositions containing them” (priority 1989, dated 1991).

Read-outs that look alike come from different tables or passages of the source.

In assay [1] the test system is influenza HA vaccine (B/Nagasaki/1/87 strain). The assay is classed as in vivo, female CDF1 mice. The settings on record: Experiment 2, 8000-fold dilution.
The test system of assay [2] is hepatitis B virus surface antigen (HBs). Kind of assay: Hepatitis-vaccine enhancing activity (adjuvant activity): anti-HBs IgG in mouse serum by ELISA. In kind it is in vivo, female CDF1 mice. To be noted: Experiment 2, 2000-fold dilution. The procedure: A compound of the present invention was dissolved in lipidmicrosphere (1 mg/ml). On the other hand, a solution of hepatitis B virus surface antigen (HBs) in physiological saline was prepared (50 μg/ml). The above solutions in equal amounts were mixed to prepare a test solution. A control solution was prepared by the exclusion of the compound of the present invention from said test solution. A mixture of a suspension of aluminium hydroxide gel in physiological saline (1 mg/ml) and said hepatitis vaccine preparation in equal amounts was prepared as another control solution. The test solution (0.2 ml) was intraperitoneally administered to each mouse in one group consisting of seven female CDF1 mice.
Blood samples were collected from the fundus ocluli vein of each mouse every week after the administration and then centrifuged to obtain serums. Three weeks after the administration, 0.2 ml of the test liquid was intraperitoneally administered again to each mouse for secondary stimulation. Then blood collecting was conducted every week to obtain serums after the application of the secondary stimulation, in the same manner as that described above.
The amount of the IgG antibodies against the hepatitis B virus surface antigens (HBs) in the serums thus obtained was determined with an ELISA method.

[3] abbreviates: 4 W (after secondary stimulation at 3 weeks).
Setting [4] is: 5 W (after secondary stimulation at 3 weeks).

With `CCCCCCCCCCCCCCCCCC(=O)OC[C@H]1O[C@H](OC(=O)C[C@@H](CCCCCCCCCCC)OC(=O)CCCCCCCCCCCCCCC)[C@H](NC(C)=O)[C@@H](O[C@H](C)C(=O)N[C@@H](C)C(=O)N[C@H](CCC(=O)OC)C(N)=O)[C@@H]1O` [Example 18, N-[2-0-{2-Acetamido-2,3-dideoxy-6-0octadecanoyl-1-0-((3R)-3-hexadecanoyloxytetradecanoyl)-α-D-glucopyranos-3-yl}-D-lactoyl]-L-alanyl-D-isoglutamine methylester], the “Anti HA serum antigen value (average value ± S.D.)” value (shortened to “Anti HA serum antigen value”) in assay [1] (1 W) worked out at 0 O.D 415 nm; in assay [1] (2 W), 0.052 ± 0.004 O.D 415 nm; in assay [1] (3 W), 0.075 ± 0.001 O.D 415 nm; in assay [1] (setting [3]) it was 0.370 ± 0.005 O.D 415 nm; in assay [1] (setting [4]), 0.360 ± 0.001 O.D 415 nm. Also, the “Anti-HBs IgG antibody level in serum (ELISA absorbance at 415 nm)” value (shortened to “Anti-HBs IgG antibody level in serum”) in assay [2] (1 W) came out at 0 O.D 415 nm; in assay [2] (2 W) it was 0.035 ± 0.007 O.D 415 nm; in assay [2] (3 W) it was 0.050 ± 0.004 O.D 415 nm; in assay [2] (setting [3]), 0.481 ± 0.006 O.D 415 nm; in assay [2] (setting [4]) it was 0.375 ± 0.008 O.D 415 nm.
As for `CCCCCCCCCCCCCC(=O)O[C@H](CCCCCCCCCCC)CC(=O)O[C@H]1O[C@H](CO)[C@@H](O)[C@H](O[C@H](C)C(=O)N[C@@H](C)C(=O)N[C@H](CCC(=O)OC)C(N)=O)[C@H]1NC(C)=O` [Example 25, N-[2-0-{2-Acetamido-2,3-dideoxy-1-0-((3R)-3-tetradecanoyloxytetradecanoyl}-α-D-glucopyranos-3-yl}-D-lactoyl]-L-alanyl-D-isoglutamine methylester], the “Anti HA serum antigen value” value in assay [1] (1 W) was 0.009 ± 0.001 O.D 415 nm; in assay [1] (2 W), 0.109 ± 0.002 O.D 415 nm; in assay [1] (3 W), 0.149 ± 0.004 O.D 415 nm; in assay [1] (setting [3]), 0.623 ± 0.019 O.D 415 nm; in assay [1] (setting [4]), 0.719 ± 0.021 O.D 415 nm. Moreover, the “Anti-HBs IgG antibody level in serum” value stood at 0.004 ± 0.002 O.D 415 nm in assay [2] (1 W); 0.021 ± 0.001 O.D 415 nm in assay [2] (2 W); 0.031 ± 0.004 O.D 415 nm in assay [2] (3 W); 0.402 ± 0.011 O.D 415 nm in assay [2] (setting [3]); 0.434 ± 0.021 O.D 415 nm in assay [2] (setting [4]).
In the case of `CCCCCCCCCCCCCCCCCCCCCCCC(=O)O[C@H](CCCCCCCCCCC)CC(=O)S[C@@H]1O[C@H](CO)[C@@H](O)[C@H](O[C@H](C)C(=O)N[C@@H](C)C(=O)N[C@H](CCC(=O)OC)C(N)=O)[C@H]1NC(C)=O` [Example 27, N-[2-0-{2-Acetamido-2,3-dideoxy-1-S-((3R)-3-tetracosanoyloxytetradecanoyl)-1-thio-β-D-glucopyranos-3-yl}-D-lactoyl]-L-alanyl-D-isoglutamine methylester], the “Anti HA serum antigen value” value in assay [1] (1 W) was 0 O.D 415 nm; in assay [1] (2 W), 0.110 ± 0.003 O.D 415 nm; in assay [1] (3 W) it was 0.161 ± 0.003 O.D 415 nm; in assay [1] (setting [3]) it was 0.751 ± 0.004 O.D 415 nm; in assay [1] (setting [4]), 0.805 ± 0.008 O.D 415 nm. Further, the “Anti-HBs IgG antibody level in serum” value in assay [2] (1 W) stood at 0.003 ± 0.003 O.D 415 nm; in assay [2] (2 W) it was 0.031 ± 0.002 O.D 415 nm; in assay [2] (3 W), 0.052 ± 0.000 O.D 415 nm; in assay [2] (setting [3]), 0.580 ± 0.016 O.D 415 nm; in assay [2] (setting [4]) it was 0.573 ± 0.013 O.D 415 nm.
Consider `CCCCCCCCCCCCCCCC(=O)O[C@H](CCCCCCCCCCC)CC(=O)S[C@@H]1O[C@H](CO)[C@@H](O)[C@H](O[C@H](C)C(=O)N[C@@H](C)C(=O)N[C@H](CCC(=O)OC)C(N)=O)[C@H]1NC(C)=O` [Example 19], for which the “Anti HA serum antigen value” value worked out at 0 O.D 415 nm in assay [1] (1 W); 0.125 ± 0.003 O.D 415 nm in assay [1] (2 W); 0.187 ± 0.001 O.D 415 nm in assay [1] (3 W); 0.872 ± 0.002 O.D 415 nm in assay [1] (setting [3]); 0.936 ± 0.006 O.D 415 nm in assay [1] (setting [4]). Moreover, the “Anti-HBs IgG antibody level in serum” value in assay [2] (1 W) is 0 O.D 415 nm; in assay [2] (2 W), 0.023 ± 0.000 O.D 415 nm; in assay [2] (3 W) it was 0.042 ± 0.001 O.D 415 nm; in assay [2] (setting [3]), 0.536 ± 0.011 O.D 415 nm; in assay [2] (setting [4]), 0.521 ± 0.012 O.D 415 nm.
As for `CCCCCCCCCCCCCCCCCC(=O)OC[C@H]1O[C@H](OC(=O)C[C@@H](CCCCCCCCCCC)OC(=O)CCCCCCCCCCCCC)[C@H](NC(C)=O)[C@@H](O[C@H](C)C(=O)N[C@@H](C)C(=O)N[C@H](CCC(=O)OC)C(N)=O)[C@@H]1O` [Example 26, N-[2-0-{2-Acetamido-2,3-dideoxy-6-0-octadecanoyl-1-0-((3R)-3-tetradecanoyloxytetradecanoyl)-α-D-glucopyranos-3-yl}-D-lactoyl]-L-alanyl-D-isogluatmine methylester], the “Anti HA serum antigen value” value in assay [1] (1 W) is listed as 0.004 ± 0.003 O.D 415 nm; in assay [1] (2 W), 0.038 ± 0.001 O.D 415 nm; in assay [1] (3 W) it was 0.054 ± 0.001 O.D 415 nm; in assay [1] (setting [3]) it was 0.208 ± 0.001 O.D 415 nm; in assay [1] (setting [4]), 0.206 ± 0.002 O.D 415 nm. Besides, the “Anti-HBs IgG antibody level in serum” value in assay [2] (1 W) stood at 0.001 ± 0.006 O.D 415 nm; in assay [2] (2 W) it was 0.015 ± 0.006 O.D 415 nm; in assay [2] (3 W) it was 0.032 ± 0.008 O.D 415 nm; in assay [2] (setting [3]) it was 0.192 ± 0.002 O.D 415 nm; in assay [2] (setting [4]), 0.163 ± 0.004 O.D 415 nm.
